Patent US20120083013A1, “GLUCOSYLTRANSFERASE SPECIFIC TO POSITION-4 OF FUROFURAN-TYPE LIGNAN, AND POLYNUCLEOTIDE ENCODING SAME” (Suntory Holdings Limited, priority 2009, published 2012)

Key:
[1] = system: RengUGT14; experiment: glycosyl acceptor selectivity of recombinant RengUGT14 (standard enzyme reaction, HPLC analysis); type: biochemical, Forsythia koreana; details: 1 mM UDP-glucose, 100 μM glycosyl acceptor substrate, pH 7.5, 30° C., one hour; for transglycosylation activity (activity against the lignan of structural formula (Ia) made 100): relative activity as glycosyl acceptor substrate
Protocol: To clarify the biochemical functions of the enzymes, the two enzymes were expressed in Escherichia coli. Using the plasmid for two RengUGT Escherichia coli expression obtained above, Escherichia coli BL21 (DE3) strain was transformed in a conventional manner. The resulting transformants were shake cultured in 4 ml of LB medium (10 g/l tryptone peptone, 5 g/l yeast extract, 1 g/l NaCl) containing 50 μg/ml of ampicillin at 37° C. overnight. When the cells reached the stationary phase, 4 ml of the culture broth was inoculated onto 80 ml of fresh medium of the same composition, followed by shake culture at 37° C. At the point when the cell turbidity (OD 600) reached approximately 0.5, IPTG in a final concentration of 0.5 mM was added to the cells, followed by shake culture at 18° C. for 20 hours. The following procedures were all carried out at 4° C. The transformants cultured were collected by centrifugation (5,000×g, 10 mins.) and suspended by adding 1 ml/g cell of Buffer S (20 mM HEPES buffer (pH 7.5), 20 mM imidazole and 14 mM […]. Subsequently, the suspension was ultrasonicated (15 secs×8 times) and then centrifuged (15,000×g, 15 mins.). The supernatant obtained was recovered as a crude enzyme solution. The crude enzyme solution was loaded onto His SpinTrap (GE Healthcare), which had been equilibrated with Buffer S, and centrifuged (70×g, 30 secs.). After washing with the buffer, the proteins bound to the column were eluted stepwise with 5 ml each of Buffer S containing 100 mM and 500 mM imidazole. In each of the eluted fractions, the buffer was replaced through a Microcon YM-30 (Amicon) by 20 mM HEPES buffer (pH 7.5)/14 mM β-mercapto ethanol (magnification of dialysis, ×1000). As a result of the SDS-PAGE analysis, in the fraction eluted with […], the protein was confirmed at approximately 50 KDa of the estimated molecular weight for the two RengUGTs. This fraction was used for the enzyme analysis (FIG. 2). Conditions for the standard enzyme reaction are as follows. […] Based on the analysis that the spectra from 220 nm to 330 nm were measured using SPD-10AV (Shimadzu Corp.), search was made for substances having two absorption maxima (230 nm and 280 nm) inherent to lignans. Under the conditions, the lignan of structural formula (Ia) was detected at approximately 11.6 minutes, the lignan of structural formula (Ib) at approximately 12.2 minutes, the lignan of structural formula (Ic) at approximately 13.8 minutes, and the lignan of structural formula (V) at approximately 9.8 minutes. The expression level of RengUGT14 recombinant protein was high in Escherichia coli (FIG. 2), and the glycosyl acceptor selectivity was evaluated using this enzyme. […]

[2] = system: RengUGT13; experiment: glucosyltransferase reaction of recombinant RengUGT13 with lignan (HPLC, LC-MS of the product); type: biochemical, Forsythia koreana; details: 1 mM UDP-glucose, 100 μM glycosyl acceptor substrate, pH 7.5, 30° C., one hour
Protocol: To clarify the biochemical functions of the enzymes, the two enzymes were expressed in Escherichia coli. Using the plasmid for two RengUGT Escherichia coli expression obtained above, Escherichia coli BL21 (DE3) strain was transformed in a conventional manner. The resulting transformants were shake cultured in 4 ml of LB medium (10 g/l tryptone peptone, 5 g/l yeast extract, 1 g/l NaCl) containing 50 μg/ml of ampicillin at 37° C. overnight. When the cells reached the stationary phase, 4 ml of the culture broth was inoculated onto 80 ml of fresh medium of the same composition, followed by shake culture at 37° C. […]
Lc-2010c (Shimadzu Corp.) was used for LC; eluent A: 0.1% TFA and eluent B: 0.1% TFA/90% acetonitrile as the moving phase; Develosil-C30-UG5 (Nomura Chemical, 4.6 mm×150 mm) as the column at 40° C. […] Based on the analysis that the spectra from 220 nm to 330 nm were measured using SPD-10AV (Shimadzu Corp.), search was made for substances having two absorption maxima (230 nm and 280 nm) inherent to lignans. Under the conditions, the lignan of structural formula (Ia) was detected at approximately 11.6 minutes, the lignan of structural formula (Ib) at approximately 12.2 minutes, the lignan of structural formula (Ic) at approximately 13.8 minutes, and the lignan of structural formula (V) at approximately 9.8 minutes. […]

Structure (SMILES)	glucose transfer to the lignan by RengUGT14 (product peak at HPLC, monoglucoside by LC-MS) [1]	transglycosylation activity (activity against the lignan of structural formula (Ia) made 100) [1]	glucose transfer to the lignan by RengUGT13 (product peak at HPLC, monoglucoside by LC-MS) [2]
COc1cc([C@H]2OC[C@H]3[C@@H]2CO[C@@H]3c2ccc(O)c(OC)c2)ccc1O [structural formula (Ia)]	activity of transferring one molecule of glucose	100	activity of transferring one molecule of glucose
COc1cc([C@H]2OC[C@H]3[C@@H]2CO[C@H]3c2ccc(OC)c(OC)c2)ccc1O [structural formula (Ic)]	–	128	–
COc1cc([C@H]2OC[C@H]3[C@@H]2CO[C@H]3c2ccc(O)c(OC)c2)ccc1O [structural formula (Ib)]	–	112	–
